Measured values taken from ChEMBL document CHEMBL1201862, “PubChem BioAssay data set” (2004).
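Five concentrations, 48 hours, 96-well plates. At the GI50, growth is halved.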 Activity calls are given as the source filed them. No stated cut-off is given here; in the data, active = GI50 up to about 1.1 µM and inactive = higher.

Tests used:
Experiment in all cases: inhibition of tumour cell growth, NCI panel, 48 h
[1] = tested on: RXF 393
[2] = tested on: NCI-H23
[3] = tested on: OVCAR-5
[4] = tested on: NCI-H522
[5] = tested on: HCT-15
[6] = tested on: BT-549
[7] = tested on: NCI-H226
[8] = tested on: MOLT-4
[9] = tested on: NCI/ADR-RES
[10] = tested on: TK-10
[11] = tested on: MDA-MB-231
[12] = tested on: RPMI-8226
[13] = tested on: MCF7
[14] = tested on: SK-OV-3
[15] = tested on: SF-539
[16] = tested on: U-251
[17] = tested on: HCC 2998
[18] = tested on: HOP-62
[19] = tested on: LOX IMVI
[20] = tested on: SNB-19
[21] = tested on: SNB-75
[22] = tested on: SN12C
[23] = tested on: UO-31
[24] = tested on: HOP-92
[25] = tested on: M14
[26] = tested on: SR
[27] = tested on: Malme-3M
[28] = tested on: OVCAR-4
[29] = tested on: MDA-MB-435
[30] = tested on: HL-60
[31] = tested on: HCT-116
[32] = tested on: SK-MEL-28
[33] = tested on: CAKI-1
[34] = tested on: 786-0
[35] = tested on: ACHN
[36] = tested on: IGROV-1
[37] = tested on: SK-MEL-2
[38] = tested on: NCI-H460
[39] = tested on: OVCAR-3
[40] = tested on: T47D
[41] = tested on: SK-MEL-5
[42] = tested on: DU-145
[43] = tested on: KM12
[44] = tested on: MDA-N
[45] = tested on: COLO 205
[46] = tested on: UACC-257
[47] = tested on: SF-295
[48] = tested on: CCRF-CEM
[49] = tested on: SF-268
[50] = tested on: EKVX
[51] = tested on: UACC-62
[52] = tested on: A498
[53] = tested on: A549
[54] = tested on: PC-3
[55] = tested on: SW-620
[56] = tested on: Hs-578T
[57] = tested on: HT-29
[58] = tested on: K562
[59] = tested on: OVCAR-8

Question: For `CC(C)C(Cl)CC/C(CBr)=C(\Cl)CCl` (centres undefined), which GI50 [1] is on record?
Answer: The GI50 was 2.8 µM (inactive).

Question: And the GI50 [2]?
Answer: The GI50 was 2.67 µM (inactive).

Question: And the GI50 [3]?
Answer: Its GI50 is 15.4 µM (inactive).

Question: What about the GI50 [4] of the same compound?
Answer: The GI50 was 0.794 µM (active).

Question: What about the GI50 [5] of the same compound?
Answer: Its GI50 is 2.89 µM.

Question: And the GI50 [6]?
Answer: Its GI50 is 2.05 µM (inactive).

Question: And the GI50 [7]?
Answer: Its GI50 is 6.7 µM (inactive).

Question: What about the GI50 [8] of the same compound?
Answer: The GI50 was 1.73 µM (inactive).

Question: And the GI50 [9]?
Answer: Its GI50 is 10.9 µM (inactive).

Question: And the GI50 [10]?
Answer: Its GI50 is 14.5 µM (inactive).

Question: And the GI50 [11]?
Answer: Its GI50 is 3.3 µM (inactive).

Question: What about the GI50 [12] of the same compound?
Answer: The GI50 was 2.27 µM (inactive).

Question: And the GI50 [13]?
Answer: Its GI50 is 0.646 µM (active).

Question: And the GI50 [14]?
Answer: Its GI50 is 6.1 µM (inactive).

Question: What about the GI50 [15] of the same compound?
Answer: Its GI50 is 15.7 µM (inactive).

Question: And the GI50 [16]?
Answer: The GI50 was 10.6 µM (inactive).

Question: And the GI50 [17]?
Answer: The GI50 was 13.7 µM (inactive).

Question: What about the GI50 [18] of the same compound?
Answer: Its GI50 is 17.1 µM (inactive).

Question: And the GI50 [19]?
Answer: The GI50 was 0.24 µM (active).

Question: What about the GI50 [20] of the same compound?
Answer: The GI50 was 14.6 µM (inactive).

Question: And the GI50 [21]?
Answer: Its GI50 is 2.01 µM (inactive).

Question: And the GI50 [22]?
Answer: The GI50 was 4.73 µM (inactive).

Question: And the GI50 [23]?
Answer: The GI50 was 16.9 µM (inactive).

Question: And the GI50 [24]?
Answer: The GI50 was 2.25 µM (inactive).

Question: And the GI50 [25]?
Answer: The GI50 was 1.85 µM (inactive).

Question: And the GI50 [26]?
Answer: Its GI50 is 1.69 µM (inactive).

Question: What about the GI50 [27] of the same compound?
Answer: The GI50 was 6.71 µM (inactive).

Question: What about the GI50 [28] of the same compound?
Answer: Its GI50 is 2.27 µM (inactive).

Question: What about the GI50 [29] of the same compound?
Answer: The GI50 was 3.2 µM (inactive).

Question: And the GI50 [30]?
Answer: Its GI50 is 0.54 µM (active).

Question: And the GI50 [31]?
Answer: The GI50 was 2.86 µM (inactive).

Question: And the GI50 [32]?
Answer: Its GI50 is 3.37 µM (inactive).

Question: What about the GI50 [33] of the same compound?
Answer: Its GI50 is 7.08 µM (inactive).

Question: And the GI50 [34]?
Answer: Its GI50 is 2.22 µM (inactive).

Question: And the GI50 [35]?
Answer: The GI50 was 16 µM (inactive).

Question: What about the GI50 [36] of the same compound?
Answer: Its GI50 is 1.77 µM (inactive).

Question: What about the GI50 [37] of the same compound?
Answer: Its GI50 is 2.1 µM (inactive).

Question: What about the GI50 [38] of the same compound?
Answer: Its GI50 is 13.4 µM (inactive).

Question: What about the GI50 [39] of the same compound?
Answer: The GI50 was 4.72 µM (inactive).

Question: What about the GI50 [40] of the same compound?
Answer: Its GI50 is 1.5 µM (inactive).

Question: And the GI50 [41]?
Answer: The GI50 was 2.02 µM (inactive).

Question: And the GI50 [42]?
Answer: The GI50 was 13.4 µM (inactive).

Question: What about the GI50 [43] of the same compound?
Answer: The GI50 was 3.21 µM (inactive).

Question: And the GI50 [44]?
Answer: The GI50 was 2.05 µM (inactive).

Question: What about the GI50 [45] of the same compound?
Answer: Its GI50 is 5.46 µM (inactive).

Question: What about the GI50 [46] of the same compound?
Answer: Its GI50 is 2.79 µM (inactive).

Question: What about the GI50 [47] of the same compound?
Answer: Its GI50 is 16.3 µM (inactive).

Question: What about the GI50 [48] of the same compound?
Answer: Its GI50 is 0.225 µM (active).

Question: What about the GI50 [49] of the same compound?
Answer: Its GI50 is 7.18 µM (inactive).

Question: What about the GI50 [50] of the same compound?
Answer: Its GI50 is 19.6 µM (inactive).

Question: And the GI50 [51]?
Answer: The GI50 was 2.24 µM (inactive).

Question: And the GI50 [52]?
Answer: The GI50 was 19.2 µM (inactive).

Question: And the GI50 [53]?
Answer: The GI50 was 17.8 µM (inactive).

Question: What about the GI50 [54] of the same compound?
Answer: The GI50 was 10.7 µM (inactive).

Question: And the GI50 [55]?
Answer: Its GI50 is 1.8 µM (inactive).

Question: What about the GI50 [56] of the same compound?
Answer: Its GI50 is 2.9 µM (inactive).

Question: And the GI50 [57]?
Answer: The GI50 was 4.75 µM (inactive).

Question: And the GI50 [58]?
Answer: Its GI50 is 0.723 µM (active).

Question: What about the GI50 [59] of the same compound?
Answer: The GI50 was 2 µM (inactive).
